The nature of series [1]: Experiment 8: oil residues in fish fillet tissue, sobaity. Set-up: species or system Sparidentex hasta. As to conditions: in vivo. The source says:
(§1) Thyme oil consists mainly of thymol. On the other hand, oregano oil consists mainly of carvacrol (40-70%) and thymol, while cinnamon oil consists mainly of (65 to 75% of the oil) is cinnamaldehyde.

Series [2] can be described thus: Experiment 8: oil residues in fish fillet tissue, sheam. The conditions noted are these: in vivo. Also noted: species or system Acanthopagrus latus.
From the text: as §1

In series [3] the test system is serum MDA (TBARS). Put plainly: Serum TBARS assay, sobaity. Format: in vivo, Sparidentex hasta. An excerpt: (§2) C. Thiobarbituric Acid Reactive Substances (TRARS) Assay.
In series [4] the test system is serum MDA (TBARS). Put plainly: Serum TBARS assay, sheam. Format: in vivo, Acanthopagrus latus.
From the text: as §2

Consider cinnamon oil (Cinnamomum zeylanicum), for which the “residue in fillet tissue” value stood at 0.52 ppm/fish in series [1] and 0.17 ppm/fish in series [2].

Consider `Cc1ccc2ccccc2n1` [Quinaldene, quinaldine], for which, in the series on serum MDA (TBARS) [3], the MDA came out at 0.0365 ± 0.003 nmol/mL and the “Relative Activity (RA) in comparison to control serum” value is listed as 79.27. Further, in the series on serum MDA (TBARS) [4], the MDA was 0.0410 ± 0.002 nmol/mL and the “Relative Activity (RA) in comparison to control serum” value is given as 89.13.

The record behind these values is US20150004262A1, “ANESTHETIC AND THERAPEUTIC COMPOSITION FOR USE IN AQUACULTURE” (priority 2012, published 2015).
